Structures are written as SMILES. Values after ≈ are worked out from the molar mass of the structure shown.

Here are results for 3 compounds from ChEMBL document CHEMBL5126560, “2,3-Dihydrobenzo-dioxine piperidine derivatives as potent and selective α2c antagonists” (Bioorg Med Chem Lett, 2022).

Data set [1] in a line: Unbound fraction in rat plasma at 1 mg/kg, po by rapid equilibrium dialysis method. Type of data set: ADME, organism-based.
Data set [2] can be described thus: Cmax in rat brain at 1 mg/kg, po. Type of data set: ADME, organism-based. Also noted: dose 1 mg/kg, route po.
Data set [3] in a line: AUC (0 to 6 hrs) in rat plasma at 1 mg/kg, po. Type of data set: ADME, organism-based. Set-up: time < 6 hr, dose 1 mg/kg, route po.
Data set [4] in a line: Unbound Cmax in rat plasma at 1 mg/kg, po by rapid equilibrium dialysis method. Conditions: in vivo. Type of data set: ADME, organism-based.
Data set [5] in a line: Unbound Cmax in rat brain at 1 mg/kg, po by rapid equilibrium dialysis method. Conditions: in vivo. Type of data set: ADME, organism-based.
Data set [6] in a line: Unbound brain-to-plasma concentration ratio in rat at 1 mg/kg, po. Type of data set: ADME, organism-based. The following applies: read-out: K(p,uu,brain).
Data set [7] in a line: Tmax in rat plasma at 1 mg/kg, po. Type of data set: ADME, organism-based.
Data set [8] in a line: Cmax in rat plasma at 1 mg/kg, po. Type of data set: ADME, organism-based. Also noted: dose 1 mg/kg, route po.
Data set [9] is described as follows: AUC (0 to 6 hrs) in rat brain at 1 mg/kg, po. Also noted: time < 6 hr, dose 1 mg/kg, route po. Type of data set: ADME, organism-based. Conditions: in vivo.
Data set [10] in a line: Unbound fraction in rat brain at 1 mg/kg, po by rapid equilibrium dialysis method. Type of data set: ADME, organism-based.
Data set [11] is described as follows: Tmax in rat brain at 1 mg/kg, po. Type of data set: ADME, organism-based.
A short description of data set [12]: Permeability across basolateral to apical side in human Caco-2 cells. Conditions: read-out: permeability. Type of data set: ADME, cell-based.
Data set [13] can be described thus: Lipophilicity, log D of compound at pH 7.4. Type of data set: physicochemical. Conditions: buffer.
The species named for another data set is Homo sapiens. Nature of the data set: Selectivity ratio of Kb for antagonist activity at human alpha2A receptor stably expressed in CHO cells to Kb for antagonist activity at human alpha2C receptor stably expressed in CHO cells. Type of data set: cell-based.
Data set [14] can be described thus: Permeability across apical to basolateral side in human Caco-2 cells. Type of data set: ADME, cell-based. Conditions: read-out: permeability.
Data set [15] can be described thus: Clearance in rat hepatocytes assessed per million cells at 1 uM. Type of data set: ADME, cell-based, Hepatocyte. The following applies: read-out: CLH.
The nature of data set [16]: Clearance in human hepatocytes assessed per million cells at 1 uM. Type of data set: ADME, cell-based, Hepatocyte. Conditions: read-out: CLH.
The next data set in a line: in vitro. The following applies: human, Caco-2.
Data set [17] in a line: Solubility of compound in pH 7.4 buffer at 1 uM. Type of data set: physicochemical.

Description for in vitro: Efflux ratio of permeability across basolateral to apical side over apical to basolateral side in human Caco-2 cells

For `CCN1C(=O)C(=O)N([C@H]2CCCN(C[C@H]3COc4ccccc4O3)C2)C1=O`, the fraction unbound was 0.078 in [1] and 0.096 in data set [10]. In addition, the Cmax in data set [2] stood at 72 ng/g; in data set [8] it was 209 ng/mL. Further, the AUC(0-t) at 6 h in [3] was determined as 261 ng·h/mL. The fCmax in [4] is 44 nM; in data set [5] it was 18 nM. The Kp uu in [6] is 0.4. Besides, the Tmax in data set [7] and in [11] was 30 min in each case. Further, the AUC in data set [9] is 91 ng·h/g.
With `Oc1cccc([C@H]2CCCN(C[C@H]3COc4ccccc4O3)C2)c1`, the Papp B→A in [12] is 24.2 ×10⁻⁶ cm/s. Besides, the logD in data set [13] (read-out: logD) came to 3.4. The Selectivity ratio in the data set listed under Homo sapiens came out at 1950. In addition, the fraction unbound in data set [1] and in data set [10] was under 0.01 in each case. In addition, the Cmax in data set [2] stood at 3 ng/g; in [8], 2 ng/mL. Besides, the AUC(0-t) at 6 h in data set [3] was determined as 9 ng·h/mL. Besides, the results for the fCmax in data set [4] and in data set [5] were under 0.06 nM and under 0.09 nM, respectively. Besides, the Tmax in data set [7] stood at 30 min; in data set [11], 360 min. This compound also yielded an AUC in [9] of 14 ng·h/g. For the same compound, the Papp A→B in data set [14] came to 16.1 ×10⁻⁶ cm/s. Moreover, the hepatocyte CLint at 1 µM in data set [15] was 682 µL/min/1e6 cells; in data set [16], 294 µL/min/1e6 cells. Moreover, the efflux ratio in the data set “in vitro” is 1.5. Moreover, the concentration in solution in data set [17] (solubility at 1 µM) came to 18 µM (≈ 5.86 µg/mL).
In the case of `COCc1cccnc1N1CCN(C[C@H]2COc3ccccc3O2)CC1` [ORM-13070], the Papp B→A in data set [12] turned out to be 45 ×10⁻⁶ cm/s. In [13], the logD was determined as 3.3. In the data set filed under Homo sapiens, the Selectivity ratio worked out at 4330. The Papp A→B in [14] was 44.9 ×10⁻⁶ cm/s. Also, the hepatocyte CLint at 1 µM in data set [15] is 135 µL/min/1e6 cells; in data set [16] it was 38.7 µL/min/1e6 cells. Further, the efflux ratio in “in vitro” came to 1. The compound also displayed a solubility at 1 µM in [17] of 176 µM (≈ 62.6 µg/mL).
